For the molecule `*c1ccccc1Oc1ccc2ccccc2c1-c1c(Oc2ccccc2N2C(=O)c3ccc(C(c4ccc5c(c4)C(=O)N(*)C5=O)(C(F)(F)F)C(F)(F)F)cc3C2=O)ccc2ccccc12` (repeat unit), the CH4 permeability turned out to be 0.07 Barrer, the CO2 permeability was determined as 4.88 Barrer, the H2 permeability turned out to be 6.86 Barrer and the N2 permeability was determined as 0.13 Barrer. Further, the O2 permeability came to 0.99 Barrer.
On the same counts, the results for `*c1ccc(Oc2ccc(C(c3ccc(Oc4ccc(N5C(=O)c6ccc(C(c7ccc8c(c7)C(=O)N(*)C8=O)(C(F)(F)F)C(F)(F)F)cc6C5=O)cc4C(F)(F)F)cc3)(C(F)(F)F)C(F)(F)F)cc2)c(C(F)(F)F)c1` (repeat unit) are 0.703 Barrer, 22.8 Barrer, 55.4 Barrer, 1.3 Barrer and 6.5 Barrer.
On the same counts, the results for `*c1ccc(C)c(-c2cc(C)c(-c3cc(*)ccc3C)cc2C)c1` (repeat unit) are 1.9 Barrer, 62 Barrer, 100 Barrer, 2.4 Barrer and 12 Barrer.
The matching figures for `*Oc1ccc(C(=O)c2ccc(-c3ccc(C(=O)c4ccc(Oc5ccc(S(=O)(=O)c6ccc(*)cc6)cc5)cc4)cc3)cc2)cc1` (repeat unit): 0.12 Barrer, 3.27 Barrer, 8.38 Barrer, 0.11 Barrer and 0.64 Barrer.
As to `*CC(*)(C)C#N` (repeat unit), the CO2 permeability came to 0.0032 Barrer and the O2 permeability was 0.0012 Barrer.
Consider `*C(Cl)CCCC(*)S(=O)(=O)Cl` (repeat unit), for which the H2 permeability turned out to be 13.3 Barrer, the N2 permeability amounted to 0.955 Barrer and the O2 permeability was determined as 3.29 Barrer.
`*C[Si](*)(C)C` (repeat unit) returned a CH4 permeability of 130 Barrer, a CO2 permeability of 549 Barrer, an N2 permeability of 38 Barrer and an O2 permeability of 99 Barrer.
For `*CC(*)(C)C(=O)OC(C)(C)C` (repeat unit), the CH4 permeability stood at 0.719 Barrer, the CO2 permeability was 15.1 Barrer, the H2 permeability worked out at 62.2 Barrer and the N2 permeability is 0.768 Barrer. This molecule had an O2 permeability of 4.53 Barrer.
On the same counts, the results for `*C(F)(F)C1(F)OC(F)(F)C(F)(F)C1(F)C(*)(F)F` (repeat unit) are 2 Barrer, 35 Barrer, 59 Barrer, 5 Barrer and 16 Barrer.
Consider `*c1ccc(Oc2ccc(-c3cccc(-c4ccc(Oc5ccc(N6C(=O)c7ccc(C(c8ccc9c(c8)C(=O)N(*)C9=O)(C(F)(F)F)C(F)(F)F)cc7C6=O)cc5)c(C(F)(F)F)c4)n3)cc2C(F)(F)F)cc1` (repeat unit), for which the CH4 permeability was found to be 1.95 Barrer, the CO2 permeability was 51.9 Barrer, the N2 permeability is 1.91 Barrer and the O2 permeability stood at 12.2 Barrer.
In the case of `*Nc1ccc(C(C)(C)c2ccc(NC(=O)c3ccc(Oc4cc(C(C)(C)C)c(Oc5ccc(C(*)=O)cc5)cc4C(C)(C)C)cc3)cc2)cc1` (repeat unit), the CH4 permeability came to 0.47 Barrer, the CO2 permeability was 13 Barrer, the N2 permeability is 0.46 Barrer and the O2 permeability is 3.11 Barrer.
On the same counts, the results for `*Oc1ccc(C(C)(C)c2ccc(OCCC(*)O)cc2)cc1` (repeat unit) are 0.02 Barrer, 0.5 Barrer, 0.019 Barrer and 0.09 Barrer.
`*Oc1cc2c(cc1O*)C1(CC2(C)C)CC(C)(C)c2cc3oc4cc5c(=O)n(-c6c(C)c(C)c(N7C(=O)c8cc(*)c(*)cc8C7=O)c(C)c6C)c(=O)c5cc4oc3cc21` (repeat unit) returned a CH4 permeability of 27 Barrer, a CO2 permeability of 520 Barrer, an H2 permeability of 360 Barrer and an N2 permeability of 23 Barrer. The O2 permeability worked out at 85 Barrer.
As for `*c1ccc(Cc2ccc(N3C(=O)c4ccc(-c5ccc6c(c5)C(=O)N(*)C6=O)cc4C3=O)cc2F)c(F)c1` (repeat unit), the CH4 permeability was determined as 0.0129 Barrer, the CO2 permeability was 0.542 Barrer, the N2 permeability amounted to 0.0203 Barrer and the O2 permeability was determined as 0.143 Barrer.
`*CC(*)C#N` (repeat unit) showed a CO2 permeability of 0.0018 Barrer, an N2 permeability of 0.00016 Barrer and an O2 permeability of 0.00028 Barrer.
With `*=CC1CC(C=*)C2C1C([Si](O[Si](C)(C)C)(O[Si](C)(C)C)O[Si](C)(C)C)C2[Si](O[Si](C)(C)C)(O[Si](C)(C)C)O[Si](C)(C)C` (repeat unit), the CH4 permeability came out at 300 Barrer, the CO2 permeability is 1160 Barrer, the H2 permeability worked out at 690 Barrer and the N2 permeability was 100 Barrer. This molecule displayed an O2 permeability of 295 Barrer.
`*c1ccc(-c2ccc(C(*)(c3ccccc3)C(F)(F)F)cc2)cc1` (repeat unit) displayed a CH4 permeability of 10 Barrer, a CO2 permeability of 166 Barrer, an H2 permeability of 114 Barrer and an N2 permeability of 6.6 Barrer. The molecule further gave an O2 permeability of 25 Barrer.
Molecule `*CC(*)OC1CCCCC1` (repeat unit) came in with a CO2 permeability of 13.6 Barrer, an N2 permeability of 0.99 Barrer and an O2 permeability of 3.69 Barrer.
Molecule `*Oc1ccc(Cc2ccc(Oc3c(F)c(F)c(COC(C4CCCC(C(OCc5c(F)c(F)c(*)c(F)c5F)(C(F)(F)F)C(F)(F)F)C4)(C(F)(F)F)C(F)(F)F)c(F)c3F)cc2)cc1` (repeat unit) gave a CH4 permeability of 0.33 Barrer, a CO2 permeability of 7.6 Barrer, an H2 permeability of 18 Barrer and an N2 permeability of 0.55 Barrer. The molecule also yielded an O2 permeability of 2.3 Barrer.
On the same counts, the results for `*c1cc(C)c(C)c(N2C(=O)c3ccc(Oc4cc(C)ccc4Oc4ccc5c(c4)C(=O)N(*)C5=O)cc3C2=O)c1C` (repeat unit) are 0.57 Barrer, 22 Barrer, 41 Barrer, 0.65 Barrer and 3.9 Barrer.
On the same counts, the results for `*CC(*)c1ccncc1` (repeat unit) are 0.14 Barrer, 3.31 Barrer, 12.6 Barrer, 0.13 Barrer and 0.84 Barrer.
Molecule `*c1cc(C)c(N2C(=O)c3ccc(C(c4ccc5c(c4)C(=O)N(*)C5=O)(C(F)(F)F)C(F)(F)F)cc3C2=O)c(C)c1` (repeat unit) registered a CH4 permeability of 0.349 Barrer, a CO2 permeability of 17.9 Barrer, an N2 permeability of 0.499 Barrer and an O2 permeability of 3.53 Barrer.
`*C(=O)c1ccc(C2(c3ccc(C(=O)c4ccc(Oc5ccc(C(=O)c6ccc(Oc7ccc(*)cc7)cc6)cc5)cc4)cc3)OC(=O)c3ccccc32)cc1` (repeat unit) yielded a CH4 permeability of 0.1 Barrer, a CO2 permeability of 3.1 Barrer, an H2 permeability of 9.2 Barrer and an N2 permeability of 0.0986 Barrer. Moreover, the O2 permeability came out at 0.68 Barrer.
The matching figures for `*c1ccc2c(-c3c(OC(C)=O)ccc4cc(N5C(=O)c6ccc(C(=O)c7ccc8c(c7)C(=O)N(*)C8=O)cc6C5=O)ccc34)c(OC(C)=O)ccc2c1` (repeat unit): 0.08 Barrer, 3.55 Barrer, 4.67 Barrer, 0.15 Barrer and 0.92 Barrer.
For the molecule `*c1ccc(N2C(=O)c3ccc(C(=O)Oc4ccc(C(c5ccc(OC(=O)c6ccc7c(c6)C(=O)N(*)C7=O)cc5)(C(F)(F)F)C(F)(F)F)cc4)cc3C2=O)cc1` (repeat unit), the H2 permeability is 4.36 Barrer, the N2 permeability came out at 0.0355 Barrer and the O2 permeability was 0.251 Barrer.
In turn, `*Oc1c(C)cc(*)c(C(=O)c2ccc(Br)cc2)c1C` (repeat unit) had a CH4 permeability of 1.13 Barrer, a CO2 permeability of 18 Barrer, an N2 permeability of 2.13 Barrer and an O2 permeability of 8.45 Barrer.
On the same counts, the results for `*c1ccc(Oc2ccc(C(C)(C)c3ccc(Oc4ccc(N5C(=O)c6ccc(-c7ccc8c(c7)C(=O)N(*)C8=O)cc6C5=O)cc4)cc3)cc2)cc1` (repeat unit) are 0.0846 Barrer, 2.8 Barrer, 0.0938 Barrer and 0.596 Barrer.
For `*/C(C)=C(/*)[Si](C)(C)C(C)C` (repeat unit), the CH4 permeability is 360 Barrer, the CO2 permeability came out at 2200 Barrer, the H2 permeability turned out to be 1650 Barrer and the N2 permeability is 170 Barrer. The molecule further registered an O2 permeability of 460 Barrer.
The matching figures for `*c1c(C)cc(-c2cc(C)c(N3C(=O)c4cc5c(cc4C3=O)C3(C(C)C)c4ccccc4C5(C(C)C)c4cc5c(cc43)C(=O)N(*)C5=O)c3ccccc23)c2ccccc12` (repeat unit): 190 Barrer, 2910 Barrer, 2170 Barrer, 145 Barrer and 550 Barrer.
For the molecule `*C(=C(*)c1ccc(-c2ccc([Si](C)(C)C)cc2)cc1)c1ccccc1` (repeat unit), the CH4 permeability came to 450 Barrer, the CO2 permeability came out at 2200 Barrer, the H2 permeability stood at 810 Barrer and the N2 permeability is 160 Barrer. In addition, the O2 permeability was found to be 390 Barrer.
The matching figures for `*C(C)=C(*)CCC(C)C` (repeat unit): 112 Barrer, 390 Barrer, 370 Barrer, 51 Barrer and 130 Barrer.
The matching figures for `*C(=C(*)c1ccc2c(c1)C(C)(C)CC2(C)C)c1cc(F)cc(F)c1` (repeat unit): 29100 Barrer, 36100 Barrer, 28500 Barrer, 13100 Barrer and 15200 Barrer.
`*c1cccc(-c2nnc(*)n2-c2ccccc2)c1` (repeat unit): the CH4 permeability stood at 0.0491 Barrer, the CO2 permeability was 2.7 Barrer, the N2 permeability was 0.09 Barrer and the O2 permeability turned out to be 0.52 Barrer.
Consider `*CC(*)c1ccccc1` (repeat unit), for which the CH4 permeability amounted to 0.785 Barrer, the CO2 permeability was determined as 12.4 Barrer, the H2 permeability was found to be 26.1 Barrer and the N2 permeability stood at 0.53 Barrer. Besides, the O2 permeability is 2.9 Barrer.

The record behind these values is a polymer gas permeability compilation.
